Measurements from patent US5238838A (Degussa Aktiengesellschaft, priority 1991, dated 1993).
“Also recorded” adds a separate entry of the source. Where a SMILES comes first, the peptide text is derived from it.

Columns and labels:
strain DSM 6230 = assay: Growth of strain DSM 6230 on the test substances (OD660); format: cell-based; details: for OD660: 5 g/l of the substance in minimum medium with 1.0 g/l yeast extract, 36 h, 30° C.; for Growth of the strain on the substance (in words): strain DSM 6230
Protocol: 1367 strains were isolated during the screening program. These strains were incubated in 100 ml Erlenmeyer flasks containing 20 ml of the particular enrichment medium in a rotary agitator at 30° C. and 120 rpms. The optical density at 660 nm was taken as an indication for the cell growth.
(§1) In this test, various substances were examined for their induction action. At the same time, the growth on these compounds was followed. The medium used was a minimum medium with 1.0 g/l instead of 0.5 g/l yeast extract, to which 5 g/l of the substance to be tested were added in each instance. The culture without inductor contained 5 g/l yeast extract. All tests were carried out with 20 ml shaking cultures which were incubated 36 h at 30° C. and 120 rpms in a rotating [round]shaking machine. These cultures were inoculated with 1% of an initial culture of strain DSM 6230. L-carnitine amide was used as substrate for the enzyme test.
(§2) At the same time, the growth of the bacteria was followed in these carnitine amide concentrations. The culture conditions corresponded to those in example 3.

L-carnitine amidase [1] = assay: Substrate spectrum of L-carnitine amidase; format: biochemical, strain DSM 6230; details: for Rel. activity (%): substrate 50 mM, 30° C., 100 mM potassium phosphate buffer pH 8
Protocol: The enzyme test was carried out at 30° C. in 100 mM potassium phosphate buffer pH 8. The substrate concentration was 50 mM.

L-carnitine amidase [2] = assay: Test for the induction of L-carnitine amidase; format: cell-based, strain DSM 6230; details: for Activity (mU/mg) / Activity (mU/ml): 5 g/l of the substance as inductor, 36 h, L-carnitine amide as substrate; for Induction of L-carnitine amidase (in words): strain DSM 6230
Protocol: as §1, §2

[3] = test system: carnitine amidase (raw extract of strain DSM 6230); assay: Activity test of the raw extract of strain DSM 6230 with enantiomerically pure D- and L-carnitine amide; format: biochemical; details: for Activity (mU/mg) / Activity (mU/ml): raw extract of strain DSM 6230, labelled amide as substrate, 50 mM, 30° C.
Protocol: After 3 days, the contents of the shaking flasks were centrifuged (10 min., 10000 rpms in a refrigerated centrifuge), and the sedimentated cells were taken up in 100 mM potassium phosphate buffer pH 7.5 (an approximately 20% microorganism suspension was produced).
The microorganisms in this suspension must be macerated in the customary manner (e.g. agitation with fine glass beads or ultrasound treatment). The cell maceration was carried out by means of wet grinding with glass beads (diameter 0.3 mm; 2 g beads per 1 ml cell suspension). The glass beads and the coarse cell fragments were centrifuged off by means of centrifugation in a refrigerated centrifuge (5 min. 12000 rpms). The clear supernatant was designated as raw extract and used for further experiments.
The materials for the activity test contained:
400 μl potassium phosphate buffer 0.1 M, pH 7.5
50 μl substrate in 0.1 M potassium phosphate buffer, pH 7.5
50 μl enzyme solution (raw extract)
The following were used as substrates:
a) DL-carnitine amide final concentration in the test 100 mM
b) D-carnitine amide final concentration in the test 50 mM c) L-carnitine amide final concentration in the test 50 mM
The enzyme test was carried out in 1.5 ml Eppendorf vessels at a temperature of 30° C. The reaction was started by the addition of enzyme solution and stopped by acidification. The precipitated protein was centrifuged off (Eppendorf centrifuge 5 min. 12500 rpms) and the supernatant examined. In order to determine the blank reading, a control specimen for the substrate and the enzyme solution was always used.
The definition of the enzyme unit is 1 mU=1 nM converted substrate per minute.
L-carnitine can be determined enzymatically with the carnitine acetyl transferase. The ammonia was determined on the one hand photometrically as indophenol and on the other hand enzymatically with the aid of glutamate dehydrogenase.
The raw extract of this strain was tested with enantiomerically pure D- and L-carnitine amide:
The raw extract was retested for D- and L-carnitine amide and the enzyme test was stopped after 10 min. (there is still sufficient L-carnitine amide in the test batch) and after 5 hours (the L-carnitine amide has reacted to a great extent or completely). The L-amidase activity, relative to the total amidase activity, was 100% after 10 min. and still over 99% after 5 hours.

[4] = test system: 20% cell suspension of the strain DSM 6230; assay: Conversion with whole cells; format: cell-based
Description: The conversion with whole cells was examined by carrying out the customary enzyme test with a 20% cell suspension of the strain DSM 6230. Result: L-carnitine amide is converted by whole cells with 64% greater activity than by a macerated cell suspension of the same concentration. D-carnitine is not converted. It is therefore to be expected that the conversion of L-carnitine amide to L-carnitine can also be carried out very well by means of immobilized microorganisms. […] Suitable microorganism immobilizates are immobilizates based on alginate or chitosan.

Compound	OD660 (strain DSM 6230)	Rel. activity (%) (L-carnitine amidase [1])	Activity (mU/mg) (L-carnitine amidase [2])	Activity (mU/ml) (L-carnitine amidase [2])	further results
CC(N)=O [Acetamide]	1.0	0	0	0	–
C=CC(N)=O [Acrylamide]	0.8	0	136	170	–
NC(=O)c1ccccc1 [Benzamide]	0.3	0	0	0	–
CCCC(N)=O [Butyramide]	0.9	0	18	54	–
C[N+](C)(C)C[C@@H](O)CC(N)=O [D-carnitine amide]	0.8	0	166	497	Hydrolysis / conversion by L-carnitine amidase (in words) (L-carnitine amidase [1]): does not hydrolyze; Activity (mU/mg) [3]: 0 mU/mg; Activity (mU/ml) [3]: 0 mU/ml
C[N+](C)(C)C[C@@H](O)CC#N [D-carnitine nitrile]	0.8	0	90	206	–
C[N+](C)(C)C[C@@H](O)CC(=O)[O-] [D-carnitine]	–	–	–	–	Conversion by whole cells (in words) [4]: not converted
NCC(N)=O [Glycine amide]	1.0	0	43	180	Growth of the strain on the substance (in words) (strain DSM 6230): good growth substrates; Induction of L-carnitine amidase (in words) (L-carnitine amidase [2]): not induced
CC(C)C(N)=O [Isobutyramide]	1.1	0	41	193	–
NC(=O)[C@@H](N)Cc1c[nH]cn1 [L-His-NH2]	–	0	–	–	–
CC[C@H](C)[C@H](N)C(N)=O [L-Ile-NH2]	–	0	–	–	–
CSCC[C@H](N)C(N)=O [L-Met-NH2]	–	0	–	–	–
NC(=O)[C@@H](N)CO [L-Ser-NH2]	–	0	–	–	–
NC(=O)[C@@H](N)Cc1c[nH]c2ccccc12 [L-Trp-NH2]	–	0	–	–	–
NC(=O)CNC(=O)[C@@H](N)Cc1ccc(O)cc1 [L-Tyr-Gly-NH2]	–	0	–	–	–
NC(=O)[C@@H](N)Cc1ccc(O)cc1 [L-Tyr-NH2]	–	0	–	–	–
CC(C)[C@H](N)C(=O)N[C@@H](Cc1ccccc1)C(N)=O [L-Val-L-Phe-NH2] (H-Val-Phe-NH2)	–	0	–	–	–
C[N+](C)(C)C[C@H](O)CC(N)=O [L-carnitine amide]	3.5	100	1706	8530	Growth of the strain on the substance (in words) (strain DSM 6230): Good growth; Hydrolysis / conversion by L-carnitine amidase (in words) (L-carnitine amidase [1]): hydrolyzes; Activity of whole cells, greater than that of a macerated cell suspension of the same concentration [4]: 64%; Induction of L-carnitine amidase (in words) (L-carnitine amidase [2]): induced; also recorded: best of the inductors tested; Activity (mU/mg) [3]: 1960 mU/mg; Activity (mU/ml) [3]: 8624 mU/ml; L-amidase activity, relative to the total amidase activity ([3]; raw extract, enzyme test stopped after 10 min.): 100%; L-amidase activity, relative to the total amidase activity ([3]; raw extract, enzyme test stopped after 5 hours): over 99%; L-amidase activity (%) ([3]; raw extract, relative to total amidase activity): 100%
C[N+](C)(C)C[C@H](O)CC#N [L-carnitine nitrile]	0.8	0	65	183	–
CC(C)C[C@H](N)C(N)=O [L-leucine amide]	2.5	0	9	34	Growth of the strain on the substance (in words) (strain DSM 6230): Good growth; Induction of L-carnitine amidase (in words) (L-carnitine amidase [2]): not induced
NC(=O)[C@@H](N)Cc1ccccc1 [L-phenylalanine amide]	0.6	0	72	172	–
NC(=O)[C@@H]1CCCN1 [L-proline amide]	1.0	0	54	250	–
CC(C)[C@H](N)C(N)=O [L-valine amide]	0.9	0	12	32	–
CC(O)C(N)=O (stereo not shown) [Lactic acid amide]	0.8	0	28	55	–
CC(C)CC(N)C(N)=O (stereo not shown) [Leu-NH2]	–	0	–	–	–
C=C(C)C(N)=O [Methacrylamide]	0.8	0	76	237	–
CCC(N)=O [Propionamide]	1.1	0	29	129	–
